Measured values published in patent publication US20100056458A1, “Peptides Inhibiting Angiotensin-Converting Enzyme” (CAMPINA NEDERLAND HOLDING B.V., priority 2005, published 2010).

System: angiotensin-converting enzyme (ACE)
Assay: HPLC with mass spectrometry and on-line bioassay unit for assessing ACE-inhibiting activity
Format: biochemical
Conditions: another batch of the same caseinate
Source text: The identity and the activity of the peptides and their mixtures can be determined by known methods, e.g. as described by Van Elswijk et al. J Chromatography A, 1020 (2003) 45-58, involving liquid chromatography coupled to mass spectroscopy, and on-line bioassay. […] The IC50 can be determined in vitro as described by V. Vermeirsen, J. van Camp & J. Verstraete, “Optimisation and validation of an angiotensin-converting enzyme inhibition assay for the screening of bioactive peptides”. J. Biochem. Biophys. Methods 51, 75-87 (2002).
The peptides obtained according to example I, were analysed using HPLC as described by Van Elswijk et al. J Chromatography A 1020 (2003) 45-58. The HPLC eluate was divided over a mass spectrometry for determining the peptide structure and a bioassay unit for assessing the ACE-inhibiting activity. The following peptides were identified: AVP (SEQ ID No. 25), LV (SEQ ID No. 5) and IV (SEQ ID No. 1). Another batch of the same caseinate contained the peptides KIHP (SEQ ID No. 28), KK (SEQ ID No. 73), VPYPQR (SEQ ID No. 20), and KYKVPQ (SEQ ID No. 91). Starting with other casein sources the peptides VLGPV (SEQ ID No. 10), VLPVPQK (SEQ ID No. 75), VPYPQ (SEQ ID No. 21), KK (SEQ ID No. 73), VNELSK (SEQ ID No. 76), and […] (SEQ ID No. 33) were found.
Similarly the product from example II was analysed and contained IAEKT (SEQ ID No. 57), LDIQK (SEQ ID No. 74) and LKALP (SEQ ID No. 64). Starting from other whey protein sources WPC 60 or whey protein isolate, VLGPV (SEQ ID No. 10), VLPVPQ (SEQ ID No. 18), MKGLDI (SEQ ID No. 41), LR (SEQ ID No. 44), MHIRLS (SEQ ID No. 48), IIA (SEQ ID No. 56) were identified.

| identified as ACE-inhibiting peptide | Substance |
| --- | --- |
| contained | VPYPQR (listed as Bos taurus) [β-casein-derived peptide] |
| contained | KYKVPQ (listed as Bos taurus) |
| contained | KIHP (listed as Bos taurus) [β-casein-derived peptide] |

Same assay, conditions: hydrolysate of example I (calcium caseinate)

| identified as ACE-inhibiting peptide | Substance |
| --- | --- |
| identified | AVP |

Same assay, conditions: other casein sources

| identified as ACE-inhibiting peptide | Substance |
| --- | --- |
| found | VPYPQ (listed as Bos taurus) [β-casein-derived peptide] |
| found | VLGPV (listed as Bos taurus) [β-casein peptide] |
| found | FFVAPFPEVFG (listed as Bos taurus) |

Further lines, the substance ahead of its results:

| Substance | identified as ACE-inhibiting peptide |
| --- | --- |
| VLPVPQK (listed as Bos taurus) | found |
| VNELSK (listed as Bos taurus) | found |

Same assay, conditions: other whey protein sources WPC 60 or whey protein isolate

| identified as ACE-inhibiting peptide | Substance |
| --- | --- |
| identified | VLGPV (listed as Bos taurus) [β-casein peptide] |
| identified | IIA (listed as Bos taurus) |

More lines, now with the values behind:

| Substance | identified as ACE-inhibiting peptide |
| --- | --- |
| VLPVPQ (listed as Bos taurus) | identified |
| MHIRLS (listed as Bos taurus) | identified |
| MKGLDI (listed as Bos taurus) [β-lactoglobulin-derived peptide] | identified |

Same assay, conditions: product from example II (WPC 80 hydrolysate)

| identified as ACE-inhibiting peptide | Substance |
| --- | --- |
| contained | LKALP (listed as Bos taurus) [β-lactoglobulin-derived peptide] |
| contained | IAEKT (listed as Bos taurus) [β-lactoglobulin-derived peptide] |
| contained | LDIQK (listed as Bos taurus) [β-lactoglobulin-derived peptide] |
